Reference: patent US20240016807A1, “COMBINATION THERAPY FOR THE TREATMENT OF A LIVER DISEASE” (INVENTIVA, priority 2020, published 2024)

Columns and labels:
Format in all cases: in vivo, C57BL6/J mice
[1] = system: HFCC+CDX diet model (liver lipids); test: Liver lipids assay in HFCC/CDX diet mouse model; conditions: 2 weeks treatment QD per os; lanifibranor 10 mg/kg, firsocostat 30 then 15 mg/kg
Protocol: (§1) It has been reported (Duparc T et al., Am J Physiol Gasterointest Liver Physiol, 2019, Vol. 317, n° 4, pages G508-G517) that mice fed with a high fat/high cholesterol/high cholic acid diet with 2% 2-hydroxypropyl beta-cyclodextrin in drinking water for 3 weeks rapidly develops liver complications such as steatosis, inflammation and fibrosis with concomitant increase in plasma ALT/AST levels. The benefit of a combination therapy comprising lanifibranor and firsocostat was assessed in this model. C57BL6/J mice were fed for 3 weeks with a 60% high fat/1.25% cholesterol/0.5% cholic acid diet with 2% 2-hydroxypropyl beta-cyclodextrin in drinking water (HFCC/CDX diet). After 1 week of diet, blood was collected (˜150 μL/ethylenediaminetetraacetic acid (EDTA)) in non-fasting conditions and plasma ALT and AST levels were measured. Mice were then randomized into 4 homogenous treatment groups (n=10 mice per group) according to their 1) ALT levels, 2) AST levels and 3) body weight. The four groups received then their treatment for the remaining 2 weeks on top of the HFCC/CDX diet as follows: • Group 1: vehicle 1+vehicle 2; • Group 2: lanifibranor+vehicle 2; • Group 3: vehicle 1+firsocostat; • Group 4: lanifibranor+firsocostat. All treatments were given QD per os. Vehicle 1 stands for lanifibranor's vehicle (i.e. methyl cellulose/poloxamer), vehicle 2 stands for firsocostat's vehicle (i.e. Tween®80/methylcellulose). Lanifibranor was given at 10 mg/kg for 2 weeks and firsocostat was given at 30 mg/kg for the first 6 days and then at 15 mg/kg for the last 8 days: due to the high loss of weight observed in the combination group, the dose of firsocostat was adapted to limit toxicity. At the end of the treatment period all the mice were weighted and 4-hour fasted prior to blood collection (maximal volume/EDTA). Plasma was isolated and stored at −80° C. Plasma leftover was used for evaluation of plasmatic triglycerides, cholesterols and free fatty acid. After blood collection, mice were sacrificed by cervical dislocation under isoflurane anaesthesia and exsanguinated with sterile saline. The liver was collected and weighted then liver samples were dissected for histology analysis (H&E, Sirius Red staining, % Sirius Red labelling and NAFLD Activity Score (NAS)), liver lipids assay, hepatic gene expression of IL-1b, MCP-1 for inflammation, Col1 alpha1 and TGF-beta for fibrosis were analysed by qPCR.

[2] = system: hepatic gene expression of IL-1b, MCP-1, Col1 alpha1 and TGF-beta; test: Hepatic gene expression by qPCR (inflammation and fibrosis genes) in HFCC/CDX diet mouse model; conditions: liver, vs vehicle, 2 weeks treatment
Protocol: as §1

[3] = system: HFCC+CDX diet model (liver histology); test: Liver histology (steatosis, inflammation, fibrosis scoring, % Sirius Red) in HFCC/CDX diet mouse model; conditions: for histological fibrosis score: compared to the vehicle group (score of 1); for histological steatosis score / histological inflammation score: 3 being the maximum; for histological steatosis score: all vehicle animals scored 3; for histological inflammation score: all vehicle mice scored 3; for surface of fibrosis (collagen deposition within the liver): vehicle 0.14%; for total scoring including steatosis, inflammation and fibrosis scoring: vehicle 6.9
Protocol: as §1

[4] = Body weight follow-up in HFCC/CDX diet mouse model; conditions: for body weight: during treatment, lanifibranor 10 mg/kg QD per os, firsocostat 30 mg/kg QD per os in first week
Protocol: It has been reported (Duparc T et al., Am J Physiol Gasterointest Liver Physiol, 2019, Vol. 317, n° 4, pages G508-G517) that mice fed with a high fat/high cholesterol/high cholic acid diet with 2% 2-hydroxypropyl beta-cyclodextrin in drinking water for 3 weeks rapidly develops liver complications such as steatosis, inflammation and fibrosis with concomitant increase in plasma ALT/AST levels. The benefit of a combination therapy comprising lanifibranor and firsocostat was assessed in this model.
(§2) C57BL6/J mice were fed for 3 weeks with a 60% high fat/1.25% cholesterol/0.5% cholic acid diet with 2% 2-hydroxypropyl beta-cyclodextrin in drinking water (HFCC/CDX diet). After 1 week of diet, blood was collected (˜150 μL/ethylenediaminetetraacetic acid (EDTA)) in non-fasting conditions and plasma ALT and AST levels were measured. Mice were then randomized into 4 homogenous treatment groups (n=10 mice per group) according to their 1) ALT levels, 2) AST levels and 3) body weight. The four groups received then their treatment for the remaining 2 weeks on top of the HFCC/CDX diet as follows: • Group 1: vehicle 1+vehicle 2; • Group 2: lanifibranor+vehicle 2; • Group 3: vehicle 1+firsocostat; • Group 4: lanifibranor+firsocostat.
All treatments were given QD per os. Vehicle 1 stands for lanifibranor's vehicle (i.e. methyl cellulose/poloxamer), vehicle 2 stands for firsocostat's vehicle (i.e.
Tween®80/methylcellulose). Lanifibranor was given at 10 mg/kg for 2 weeks and firsocostat was given at 30 mg/kg for the first 6 days and then at 15 mg/kg for the last 8 days: due to the high loss of weight observed in the combination group, the dose of firsocostat was adapted to limit toxicity. At the end of the treatment period all the mice were weighted and 4-hour fasted prior to blood collection (maximal volume/EDTA). Plasma was isolated and stored at −80° C. Plasma leftover was used for evaluation of plasmatic triglycerides, cholesterols and free fatty acid. After blood collection, mice were sacrificed by cervical dislocation under isoflurane anaesthesia and exsanguinated with sterile saline.

[5] = system: epididymal white adipose tissue (EWAT); test: Epididymal white adipose tissue weight in HFCC/CDX diet mouse model; conditions: 2 weeks treatment QD per os; lanifibranor 10 mg/kg, firsocostat 30 then 15 mg/kg
Protocol: as §2, with “It has been reported (Duparc T et al., Am J Physiol Gasterointest Liver Physiol, 2019, Vol. 317, n° 4, pages G508-G517) that mice fed with a high fat/high cholesterol/high cholic acid diet with 2% 2-hydroxypropyl beta-cyclodextrin in drinking water for 3 weeks rapidly develops liver complications such as steatosis, inflammation and fibrosis with concomitant increase in plasma ALT/AST levels. The benefit of a combination therapy comprising lanifibranor and firsocostat was assessed in this model. C57BL6/J” for “C57BL6/J”, “lanifibranor+firsocostat. All treatments were given QD per os. […]” for “lanifibranor+firsocostat.”

## COc1ccccc1[C@H](Cn1c(=O)n(C(C)(C)C(=O)O)c(=O)c2c(C)c(-c3ncco3)sc21)OC1CCOCC1 [firsocostat]
[1]
  hepatic fatty acids levels, change vs vehicle: −16%
  hepatic total cholesterol, change vs vehicle: −9%
  hepatic triglycerides, change vs vehicle: −14%
[2]
  hepatic IL-1beta expression: decreased both IL-1beta and MCP-1 expressions but only the decrease in MCP-1 expression reached significance
  hepatic MCP-1 expression: decreased both IL-1beta and MCP-1 expressions but only the decrease in MCP-1 expression reached significance
  hepatic TGF-beta1 expression: statistically decreased
  hepatic collagen 1 alpha 1 expression: statistically decreased
[3]
  histological fibrosis score: no effect
  histological steatosis score: score of 2 in 7 animals but had no effect in 2 animals
  histological inflammation score: 1 animals had a score of 3, 7 animals had a score of 2 and 1 animal had a score of 1
  surface of fibrosis (collagen deposition within the liver): 0.10%
  total scoring including steatosis, inflammation and fibrosis scoring: 5.1
[4]; after firsocostat dose reduced from 30 mg/kg to 15 mg/kg
  body weight after firsocostat dose reduction: normalized their body weight
[4]
  body weight: induced a body weight loss in the first week of treatment
[5]
  epididymal white adipose tissue (EWAT) weight: neither lanifibranor alone, firsocostat alone nor the combination of lanifibranor and firsocostat had an effect

## O=C(O)CCCc1cc2cc(Cl)ccc2n1S(=O)(=O)c1ccc2ncsc2c1 [lanifibranor, 5-Chloro-1-[(6-benzothiazolyl)sulfonyl]-1H-indole-2-butanoic acid]
[1]
  hepatic fatty acids levels, change vs vehicle: no effect
  hepatic total cholesterol, change vs vehicle: −18%
  hepatic triglycerides, change vs vehicle: −7%
[2]
  hepatic IL-1beta expression: statistically decreased
  hepatic MCP-1 expression: statistically decreased
  hepatic TGF-beta1 expression: statistically decreased
  hepatic collagen 1 alpha 1 expression: statistically decreased
[3]
  histological fibrosis score: no effect
  histological steatosis score: score of 2 for 8 animals and of 1 for 2 animals
  histological inflammation score: 2 animals had a score of 3, 6 animals had a score of 2 and 2 animals had a score of 1
  surface of fibrosis (collagen deposition within the liver): 0.08%
  total scoring including steatosis, inflammation and fibrosis scoring: 4.7
[4]
  body weight: minor body weight loss that was not significant
[5]
  epididymal white adipose tissue (EWAT) weight: neither lanifibranor alone, firsocostat alone nor the combination of lanifibranor and firsocostat had an effect
